For orientation: Ki means the dissociation constant of the complex between target and ligand, obtained from inhibition or displacement.

Experimental findings from US20240279218A1 (Hoffmann-La Roche Inc., priority 2016, published 2024) are described below.

Like-named read-outs stand apart in the source and are kept apart here.

Experiment [1] concerns the target T1, h-GABA-A α5β3γ2 (Homo sapiens (Human), UniProt P18507+P31644). The experiment can be described thus: Two-electrode voltage clamp electrophysiology in Xenopus oocytes expressing GABAA receptors, modulation of GABA EC20 current. The class given is cell-based. The method, boiled down: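 Values are % modulation of an EC20 GABA response, derived point by point from the ratio of compound-exposed versus control current traces (extremum taken, 100×(fold−1)). Recordings used oocytes injected with human α5, β3, γ2 mRNA, clamped at −80 mV at room temperature, at least 3 oocytes each.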
In general terms: In two-electrode clamp one electrode senses voltage and the other passes current.

Experiment [2] has as its target T1, h-GABA-A α5β3γ2. Kind of experiment: [3H]flumazenil competition binding assay, membranes of HEK293 cells expressing human GABAA receptors. The method, boiled down: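 Membranes were prepared from HEK293 cells with transient human α5β3γ2 expression and assayed in Krebs-tris, pH 7.5. Bound radioactivity measured on filters by liquid scintillation.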
Where [3] appears, read: % modulation of GABA EC20 = 100*(Fold increase−1), Xenopus oocytes.
Where [4] appears, read: Xenopus oocytes, GABA EC20, test compound at approx. 30 fold its Ki.
Where [5] appears, read: displacement of [3H]flumazenil 0.5 nM, HEK293 cells expressing human receptors, mean of two determinations, read-out: Ki h-GABA-A α5β3γ2.

Regarding `Cc1onc(-c2ccc(Cl)nc2)c1COc1ccc(C(=O)NC2CC3(COC3)C2)nn1` [Example 162, 6-((3-(6-chloropyridin-3-yl)-5-methylisoxazol-4-yl)methoxy)-N-(2-oxaspiro[3.3]heptan-6-yl)pyridazine-3-carboxamide], in experiment [1] (setting [3]), the “Efficacy (GABA) %” value is recorded as 37%. Also, the “Fold increase h-GABA-A α5β3γ2 oocyte” value in experiment [1] (setting [4]) turned out to be 1.37. Besides, the Ki in experiment [2] (setting [5]) turned out to be 0.0112 µM.

For `Cc1ccc(-c2noc(C)c2COc2ccc(C(=O)N[C@H]3CCCC[C@@H]3O)nn2)cn1` [Example 24, N-((1S,2S)-2-hydroxycyclohexyl)-6-((5-methyl-3-(6-methylpyridin-3-yl)isoxazol-4-yl)methoxy)pyridazine-3-carboxamide], the “Efficacy (GABA) %” value in experiment [1] (setting [3]) amounted to 63%. Besides, the “Fold increase h-GABA-A α5β3γ2 oocyte” value in experiment [1] (setting [4]) is reported as 1.63. Moreover, in experiment [2] (setting [5]), the Ki was 0.0416 µM.

As for `Cc1ccc(-c2noc(C)c2COc2ccc(C(=O)NC3CCOCC3)nn2)cn1` [Example 8, 6-((5-methyl-3-(6-methylpyridin-3-yl)isoxazol-4-yl)methoxy)-N-(tetrahydropyran-4-yl)pyridazine-3-carboxamide], in experiment [1] (setting [3]), the “Efficacy (GABA) %” value came out at 97%. Also, in experiment [1] (setting [4]), the “Fold increase h-GABA-A α5β3γ2 oocyte” value is 1.97. The Ki in experiment [2] (setting [5]) was determined as 0.0087 µM.

On to `Cc1ccc(-c2noc(C)c2COc2ccc(C(=O)NC(C)(C)C)nn2)cn1` [Example 41, N-tert-butyl-6-((5-methyl-3-(6-methylpyridin-3-yl)isoxazol-4-yl)methoxy)pyridazine-3-carboxamide], for which, in experiment [1] (setting [3]), the “Efficacy (GABA) %” value was determined as 104%. Moreover, the “Fold increase h-GABA-A α5β3γ2 oocyte” value in experiment [1] (setting [4]) is on record as 2.04. The Ki in experiment [2] (setting [5]) worked out at 0.0194 µM.

Turning to `CCO[C@H]1C[C@@H](NC(=O)c2ccc(OCc3c(-c4ccc(C)nc4)noc3C)nn2)C1` [Example 171, cis-N-(3-ethoxycyclobutyl)-6-((5-methyl-3-(6-methylpyridin-3-yl)isoxazol-4-yl)methoxy)pyridazine-3-carboxamide], the “Efficacy (GABA) %” value in experiment [1] (setting [3]) is on record as 72%. In addition, the “Fold increase h-GABA-A α5β3γ2 oocyte” value in experiment [1] (setting [4]) is recorded as 1.72. Further, in experiment [2] (setting [5]), the Ki turned out to be 0.0181 µM.

As to `CNC(=O)c1ccc(OCc2c(-c3ccc(C)nc3)noc2C)nn1` [Example 46, N-methyl-6-((5-methyl-3-(6-methylpyridin-3-yl)isoxazol-4-yl)methoxy)pyridazine-3-carboxamide], the “Efficacy (GABA) %” value in experiment [1] (setting [3]) is on record as 63%. Further, in experiment [1] (setting [4]), the “Fold increase h-GABA-A α5β3γ2 oocyte” value was found to be 1.63. For the same compound, the Ki in experiment [2] (setting [5]) was 0.0035 µM.

Regarding `Cc1ccc(-c2noc(C)c2COc2ccc(C(=O)N[C@H]3CC4CCC3O4)nn2)cn1` (stereo partly drawn) [Example 186, N-((2S)-7-oxabicyclo[2.2.1]heptan-2-yl)-6-((5-methyl-3-(6-methylpyridin-3-yl)isoxazol-4-yl)methoxy)pyridazine-3-carboxamide], the “Efficacy (GABA) %” value in experiment [1] (setting [3]) was found to be 72%. Further, the “Fold increase h-GABA-A α5β3γ2 oocyte” value in experiment [1] (setting [4]) was 1.72. Also, in experiment [2] (setting [5]), the Ki was determined as 0.0166 µM.

On to `Cc1ccc(-c2noc(C)c2COc2ccc(C(=O)N3CC(O)C3)nn2)cn1` [Example 66, (3-hydroxyazetidin-1-yl)(6-((5-methyl-3-(6-methylpyridin-3-yl)isoxazol-4-yl)methoxy)pyridazin-3-yl)methanone], for which the “Efficacy (GABA) %” value in experiment [1] (setting [3]) is reported as 69%. Further, the “Fold increase h-GABA-A α5β3γ2 oocyte” value in experiment [1] (setting [4]) came to 1.69. Also, in experiment [2] (setting [5]), the Ki was 0.0058 µM.

Regarding `Cc1ccc(-c2noc(C)c2COc2ccc(C(=O)NC3CC4(C3)CC(F)(F)C4)nn2)cn1` [Example 167, N-(6,6-difluorospiro[3.3]heptan-2-yl)-6-((5-methyl-3-(6-methylpyridin-3-yl)isoxazol-4-yl)methoxy)pyridazine-3-carboxamide], the “Efficacy (GABA) %” value in experiment [1] (setting [3]) was found to be 64%. Besides, the “Fold increase h-GABA-A α5β3γ2 oocyte” value in experiment [1] (setting [4]) worked out at 1.64. Also, the Ki in experiment [2] (setting [5]) stood at 0.0191 µM.

For `Cc1ccc(-c2noc(C)c2COc2ccc(C(=O)N3CC4(C3)CC(F)(F)C4)nn2)cn1` [Example 155, (6,6-difluoro-2-azaspiro[3.3]heptan-2-yl)(6-((5-methyl-3-(6-methylpyridin-3-yl)isoxazol-4-yl)methoxy)pyridazin-3-yl)methanone], the “Efficacy (GABA) %” value in experiment [1] (setting [3]) is 46%. The “Fold increase h-GABA-A α5β3γ2 oocyte” value in experiment [1] (setting [4]) is 1.46. In addition, the Ki in experiment [2] (setting [5]) amounted to 0.0154 µM.

In the case of `COc1ccc(-c2noc(C)c2COc2ccc(C(=O)NC3CCOCC3)cn2)cn1` [Example 137, 6-((3-(6-methoxypyridin-3-yl)-5-methylisoxazol-4-yl)methoxy)-N-tetrahydropyran-4-yl-pyridine-3-carboxamide], the “Efficacy (GABA) %” value in experiment [1] (setting [3]) stood at 55%. Moreover, in experiment [1] (setting [4]), the “Fold increase h-GABA-A α5β3γ2 oocyte” value is given as 1.55. The Ki in experiment [2] (setting [5]) turned out to be 0.0254 µM.

On to `Cc1ccc(-c2noc(C)c2COc2ccc(C(=O)N[C@@H]3C[C@@H]4CC[C@@H]3O4)nn2)cn1` (single isomer, unassigned) [Example 189], for which, in experiment [1] (setting [3]), the “Efficacy (GABA) %” value was determined as 86%. In addition, the “Fold increase h-GABA-A α5β3γ2 oocyte” value in experiment [1] (setting [4]) is listed as 1.86. In addition, the Ki in experiment [2] (setting [5]) was 0.0188 µM.

In the case of `Cc1onc(-c2ccc(Cl)cn2)c1COc1ccc(C(=O)NC2CCOCC2)cn1` [RO-301, reference compound], the “Efficacy (GABA) %” value in experiment [1] (reference compounds, % modulation of GABA EC20) is on record as −18%. Moreover, in experiment [1] (reference compounds, GABAA α5β3γ2 overexpressing oocytes, GABA EC20), the “Fold increase h-GABA-A α5β3γ2 oocyte” value is listed as 0.82. Besides, the Ki in experiment [2] (reference compounds, GABAA receptor α5β3γ2, read-out: Ki α5-human) came out at 0.0002 µM.

For `COCC1(NC(=O)c2ccc(OCc3c(-c4ccc(C)nc4)noc3C)nn2)CC1` [Example 54, N-(1-(methoxymethyl)cyclopropyl)-6-((5-methyl-3-(6-methylpyridin-3-yl)isoxazol-4-yl)methoxy)pyridazine-3-carboxamide], the “Efficacy (GABA) %” value in experiment [1] (setting [3]) is recorded as 86%. The “Fold increase h-GABA-A α5β3γ2 oocyte” value in experiment [1] (setting [4]) was 1.86. Moreover, the Ki in experiment [2] (setting [5]) is 0.0199 µM.

On to `Cc1ccc(-c2noc(C)c2COc2ccc(C(=O)N[C@H]3CCCC(F)(F)[C@@H]3O)cn2)cn1` [Example 133, N-((1S,2R)-3,3-difluoro-2-hydroxycyclohexyl)-6-((5-methyl-3-(6-methylpyridin-3-yl)isoxazol-4-yl)methoxy)pyridine-3-carboxamide], for which, in experiment [1] (setting [3]), the “Efficacy (GABA) %” value was found to be 95%. Moreover, in experiment [1] (setting [4]), the “Fold increase h-GABA-A α5β3γ2 oocyte” value was 1.95. In addition, the Ki in experiment [2] (setting [5]) is 0.0431 µM.

As for `CCNC(=O)c1ccc(OCc2c(-c3ccc(C)nc3)noc2C)nn1` [Example 37, N-ethyl-6-((5-methyl-3-(6-methylpyridin-3-yl)isoxazol-4-yl)methoxy)pyridazine-3-carboxamide], the “Efficacy (GABA) %” value in experiment [1] (setting [3]) came to 73%. Also, the “Fold increase h-GABA-A α5β3γ2 oocyte” value in experiment [1] (setting [4]) was 1.73. Besides, the Ki in experiment [2] (setting [5]) is 0.0076 µM.

In the case of `Cc1ccc(-c2noc(C)c2COc2ccc(C(=O)N[C@@H]3CC[C@@](O)(C(F)(F)F)C3)nn2)cn1` (single isomer, unassigned) [Example 149], the “Efficacy (GABA) %” value in experiment [1] (setting [3]) turned out to be 37%. Moreover, the “Fold increase h-GABA-A α5β3γ2 oocyte” value in experiment [1] (setting [4]) was determined as 1.37. The Ki in experiment [2] (setting [5]) is 0.005 µM.

For `Cc1ccc(-c2noc(C)c2COc2ccc(C(=O)N[C@H]3C[C@H](OC(F)F)C3)nn2)cn1` [Example 174, trans-N-(3-(difluoromethoxy)cyclobutyl)-6-((5-methyl-3-(6-methylpyridin-3-yl)isoxazol-4-yl)methoxy)pyridazine-3-carboxamide], in experiment [1] (setting [3]), the “Efficacy (GABA) %” value worked out at 55%. Also, in experiment [1] (setting [4]), the “Fold increase h-GABA-A α5β3γ2 oocyte” value was 1.55. Also, the Ki in experiment [2] (setting [5]) came to 0.0088 µM.

For `Cc1ccc(-c2noc(C)c2COc2ccc(C(=O)N[C@H]3CCCC[C@@H]3O)cn2)cn1` [Example 135, N-((1S,2S)-2-hydroxycyclohexyl)-6-((5-methyl-3-(6-methylpyridin-3-yl)isoxazol-4-yl)methoxy)pyridine-3-carboxamide], the “Efficacy (GABA) %” value in experiment [1] (setting [3]) amounted to 92%. For the same compound, the “Fold increase h-GABA-A α5β3γ2 oocyte” value in experiment [1] (setting [4]) worked out at 1.92. For the same compound, in experiment [2] (setting [5]), the Ki is 0.0304 µM.

Take `Cc1ccc(-c2noc(C)c2COc2ccc(C(=O)NC3CCC(F)(F)CC3)nn2)cn1` [Example 43, N-(4,4-difluorocyclohexyl)-6-((5-methyl-3-(6-methylpyridin-3-yl)isoxazol-4-yl)methoxy)pyridazine-3-carboxamide]: the “Efficacy (GABA) %” value in experiment [1] (setting [3]) is reported as 82%. The “Fold increase h-GABA-A α5β3γ2 oocyte” value in experiment [1] (setting [4]) is 1.82. Also, in experiment [2] (setting [5]), the Ki is 0.0164 µM.

Take `Cc1ccc(-c2noc(C)c2COc2cnc(C(=O)NC3CCOCC3)cn2)cn1` [Example 15, 5-((5-methyl-3-(6-methylpyridin-3-yl)isoxazol-4-yl)methoxy)-N-(tetrahydropyran-4-yl)pyrazine-2-carboxamide]: the “Efficacy (GABA) %” value in experiment [1] (setting [3]) worked out at 55%. Further, the “Fold increase h-GABA-A α5β3γ2 oocyte” value in experiment [1] (setting [4]) was 1.55. In experiment [2] (setting [5]), the Ki stood at 0.0198 µM.

As for `Cc1ccc(-c2noc(C)c2COc2ccc(C(=O)NC(C)(C)CO)nn2)cn1` [Example 32], the “Efficacy (GABA) %” value in experiment [1] (setting [3]) was 79%. Moreover, the “Fold increase h-GABA-A α5β3γ2 oocyte” value in experiment [1] (setting [4]) turned out to be 1.79. Also, the Ki in experiment [2] (setting [5]) came to 0.0085 µM.

As to `Cc1ccc(-c2noc(C)c2COc2ccc(C(=O)N[C@H]3C[C@@H](OC(F)F)C3)nn2)cn1` [Example 173, cis-N-(3-(difluoromethoxy)cyclobutyl)-6-((5-methyl-3-(6-methylpyridin-3-yl)isoxazol-4-yl)methoxy)pyridazine-3-carboxamide], in experiment [1] (setting [3]), the “Efficacy (GABA) %” value is recorded as 68%. Moreover, in experiment [1] (setting [4]), the “Fold increase h-GABA-A α5β3γ2 oocyte” value is 1.68. In addition, the Ki in experiment [2] (setting [5]) was 0.0156 µM.

In the case of `CCC[C@@H](CO)NC(=O)c1ccc(OCc2c(-c3ccc(OC)nc3)noc2C)nc1` [Example 139, (S)—N-(1-hydroxypentan-2-yl)-6-((3-(6-methoxypyridin-3-yl)-5-methylisoxazol-4-yl)methoxy)pyridine-3-carboxamide], the “Efficacy (GABA) %” value in experiment [1] (setting [3]) amounted to 152%. For the same compound, in experiment [1] (setting [4]), the “Fold increase h-GABA-A α5β3γ2 oocyte” value is recorded as 2.52. In addition, the inhibition constant (Ki) in experiment [2] (setting [5]) was found to be 0.0194 µM.
